According to US20240294545A1 (CSPC Zhongqi Pharmaceutical Technology (Shijiazhuang) Co., …, priority 2020, published 2024):
pIC50: −log10 of the molar value. Where two headings read alike, the source gives them in different places. Marks after values point to notes of the source that are not given here.

Legend:
ATM = ATM (Homo sapiens (Human), UniProt Q13315); test: Caliper mobility shift assay for ATM; format: biochemical; conditions: read-out: IC50 of inhibitory activity on ATM kinase
Method: 1.2 Determination of the Inhibitory Activities of Compounds on ATM: Caliper Mobility Shift Assay for ATM
To a 96-well plate, 98 μL of DMSO and 2 μL of the 10 mM stock solution were added and mixed evenly so that the concentration of the solution was 200 μM.
Based on the inhibitory rates of the compound at different concentrations, IC50 was calculated according to the formula: Y=Bottom+(Top−Bottom)/(1+(IC50/X)^HillSlope).

ATM-phosphorylated KAP1 = test: Intracellular ATM-phosphorylated KAP1 level, ICW assay in MCF7 cells; format: cell-based, Human; conditions: for pIC50: MCF7 cells, 2 h compound, 10 Gy irradiation, further 1 h, read-out: pKAP1 IC50
Method: 4 Inhibition on Intracellular ATM-Phosphorylated KAP1 Level by the Compounds of the Present Disclosure: ICW Assay
• Cell: Human breast cancer cell line MCF7 • Materials and reagents:
4.2 Experimental Procedures
• (1) Cell inoculation • MCF7 cells were inoculated on a 384-well plate, 10000 cells/well (25 μL/well), and cultured overnight at 37° C. with 5% CO2. • (2) Activity detection • 1) The compound was formulated into a 100 mM solution with DMSO and then sequentially diluted with a gradient of 1:3 to yield a total of 10 concentration gradients, wherein the maximum concentration was 100 μM. • 2) 25 nL of each of the compound solutions with gradient concentrations prepared in step 1) was added to each well of the cell plate (Corning #356663) by using I-DOT One, resulting in a final concentration of 100 nM (maximum dose). • 3) The cell plate containing compound was incubated at 37° C. with 5% CO2 for 2 h. After 2 h, the cell plate was irradiated with a dose of 10 Gy, and then further incubated for 1 h. • 4) 25 μL of 8% paraformaldehyde was added to each well, followed by incubating at room temperature for 20 min. • 5) The 8% paraformaldehyde was discarded, followed by adding 0.1% TrintonX-100 and incubating at room temperature for 30 min. • 6) Odessey blocking buffer was added at 50 μL/well, followed by incubating at room temperature for 1.5 h. • 7) The Odessey blocking buffer was discarded, and then a primary antibody (Phospho-KAP1, 1:2000 dilution) was added, followed by incubating overnight at 4° C. • 8) The primary antibody was removed, followed by washing with PBS+0.1% Tween 20 for 5 times. • 9) DNA dye DRAQ5 coated with a second antibody (IRDye 800CW Goat anti-Rabbit, 1:4000 dilution) was added, followed by incubating at room temperature for 1 h. • 10) The second antibody was removed, followed by washing with PBS+0.1% Tween 20 for 5 times. • 11) PBS+0.1% Tween 20 was sucked off with Odyssey. • (3) Data analysis • 1) the relative ratio of Channel 800/Channel 700 for each well was detected. • 2) % of KAP1 phosphorylation was calculated according to the following formula:
% of KAP1 phosphorylation=[(Ratiocmpd−(Ratio)Positive)/((Ratio)Vehicle−(Ratio)Positive]*100 • (Ratio)Positive: the mean value of the test values of each positive control well in the test cell plate; • (Ratio)Vehicle: the mean value of the test values of each negative control well in the test cell plate. • 3) the IC50 of each compound was calculated and the dose-effect curve was plotted: % of KAP1 phosphorylation and log of compound's concentration were fit by using Graphpad 8.0 so as to calculate the IC50.
[formula] • X: log of compound's concentration • Y: % of KAP1 phosphorylation

[1] = system: Human glioblastoma cell line LN-18; test: LN18 cell proliferation combined with radiotherapy (CTG assay); format: cell-based; conditions: for pIC50: LN18 cells, 1 Gy irradiation 1 h after compound, 6 days, CTG;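 for pIC50: readout is CTG luminescence proliferation not KAP1 phosphorylation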
Method: 5 Test of the Inhibitory Activities of the Compounds of the Present Disclosure Combined with Radiotherapy on LN18 Cell Proliferation
• Cell: Human glioblastoma cell line LN-18
5.2 Experimental Procedures
• (1) Cell inoculation • 1) The cell culture fluid was preheated at 37° C. • 2) A complete culture medium of LN18 cells was prepared, at a ratio of DMEM medium:FBS=95:5 (V/V). • 3) Cells were digested with trypsin, collected to serve as a cell suspension, and counted, the cell suspension was then added into a 96-well plate at 1500 cells/well and 100 μL of cell fluid/well, and three parallel wells were set. • 4) After inoculated in the plate, the cells were cultured overnight under the condition of 37° C. and 5% CO2. • (2) Compound addition and incubation • 1) AZD1390 and tested compounds, respectively, were sequentially diluted 5 times with DMSO, starting from the concentration of 10 mM and yielding the concentrations of 10, 2, 0.4, 0.08, 0.016, 0.0032, 0.00064, 0.000128, and 0.0000256 mM in turn. The compound solutions at the above concentrations were diluted 5000 times with the complete culture medium. The final 2× concentrations were in order 2000, 400, 80, 16, 3.2, 0.64, 0.128, 0.0256, and 0.00512 nM. The vehicle control was 0.02% DMSO culture fluid. • 2) A complete culture medium containing 100 μL of the compound solution was added to each well, and the final concentrations of the compounds in the wells were in order 1000, 200, 40, 8, 1.6, 0.32, 0.064, 0.0128, and 0.00256 nM. The 0.01% DMSO culture fluid was contained in the vehicle control well. After incubated with compound for 1 h, the cells were irradiated at a dose of 1 Gy. • 3) After irradiation, the plate was put into an incubator and incubated under the condition of 37° C. and 5% CO2 for 6 days. Then detection was performed by adopting CTG assay (100 μL of liquid from each well was sucked out and discarded, and 50 μL of CTG reagent was added to each well, and incubated at room temperature for 30 min, and the luminescence intensity was detected). • (3) Data analysis • 1) The Luminescence signal (RLU) of each well was detected. • 2) Proliferation inhibitory activity was calculated according to the formula: % inhibitory activity=RLUtreatment/RLUAvg(Vehicle)*100. 5.3 the Inhibitory Activities of Compounds of the Present Disclosure Combined with Radiotherapy on LN18 Cell Proliferation

[2] = system: subcutaneous xenograft tumor of human glioblastoma LN-18; test: LN-18 subcutaneous xenograft, combined with radiotherapy; format: in vivo, NOG mice; conditions: compound 5 mg/kg intragastric qd × 5 + IR 1 Gy, day 17
Method: 9 Efficacy Test of the Compounds of the Present Disclosure Combined with Radiotherapy on Inhibiting the Growth of Subcutaneous Xenograft Tumor of Human Glioblastoma LN-18
9.1 Experimental Animals: NOG Mice, SPF, Female, 18 to 22 g.
LN-18 tumor cells, DMEM medium:fetal bovine serum=95%:5%, accompanied by adding 100 U/mL penicillin and 100 μg/mL streptomycin, 37° C., 5% CO2.
LN18 tumor cells resuspended in serum-free DMEM medium were inoculated subcutaneously in the right costal region of experimental animals at 1.5*10^7/0.15 mL, and the animals were grouped when the tumor grew to 100 to 150 mm^3. Radiotherapy was performed 1 h after administration of compounds.
Tumor volume: The tumor volume was measured twice a week with a vernier caliper, and the long diameter and short diameter of tumor were measured. The tumor volume was calculated as follows: tumor volume (TV)=0.5×long diameter×short diameter^2. Tumor growth inhibitory rate (TGI %) was calculated according to the tumor volume. TVXn represents the mean tumor volume on day n of the treatment group, TVX0 represents the mean tumor volume on day 0 of the treatment group, TVMn represents the mean tumor volume on day n of the control group, and TVM0 represents the mean tumor volume on day 0 of the control group.

[3] = Homo sapiens, light or radiation study
[4] = Homo sapiens, LN-18, light or radiation study

Sequence of ATM (Q13315 whole entry): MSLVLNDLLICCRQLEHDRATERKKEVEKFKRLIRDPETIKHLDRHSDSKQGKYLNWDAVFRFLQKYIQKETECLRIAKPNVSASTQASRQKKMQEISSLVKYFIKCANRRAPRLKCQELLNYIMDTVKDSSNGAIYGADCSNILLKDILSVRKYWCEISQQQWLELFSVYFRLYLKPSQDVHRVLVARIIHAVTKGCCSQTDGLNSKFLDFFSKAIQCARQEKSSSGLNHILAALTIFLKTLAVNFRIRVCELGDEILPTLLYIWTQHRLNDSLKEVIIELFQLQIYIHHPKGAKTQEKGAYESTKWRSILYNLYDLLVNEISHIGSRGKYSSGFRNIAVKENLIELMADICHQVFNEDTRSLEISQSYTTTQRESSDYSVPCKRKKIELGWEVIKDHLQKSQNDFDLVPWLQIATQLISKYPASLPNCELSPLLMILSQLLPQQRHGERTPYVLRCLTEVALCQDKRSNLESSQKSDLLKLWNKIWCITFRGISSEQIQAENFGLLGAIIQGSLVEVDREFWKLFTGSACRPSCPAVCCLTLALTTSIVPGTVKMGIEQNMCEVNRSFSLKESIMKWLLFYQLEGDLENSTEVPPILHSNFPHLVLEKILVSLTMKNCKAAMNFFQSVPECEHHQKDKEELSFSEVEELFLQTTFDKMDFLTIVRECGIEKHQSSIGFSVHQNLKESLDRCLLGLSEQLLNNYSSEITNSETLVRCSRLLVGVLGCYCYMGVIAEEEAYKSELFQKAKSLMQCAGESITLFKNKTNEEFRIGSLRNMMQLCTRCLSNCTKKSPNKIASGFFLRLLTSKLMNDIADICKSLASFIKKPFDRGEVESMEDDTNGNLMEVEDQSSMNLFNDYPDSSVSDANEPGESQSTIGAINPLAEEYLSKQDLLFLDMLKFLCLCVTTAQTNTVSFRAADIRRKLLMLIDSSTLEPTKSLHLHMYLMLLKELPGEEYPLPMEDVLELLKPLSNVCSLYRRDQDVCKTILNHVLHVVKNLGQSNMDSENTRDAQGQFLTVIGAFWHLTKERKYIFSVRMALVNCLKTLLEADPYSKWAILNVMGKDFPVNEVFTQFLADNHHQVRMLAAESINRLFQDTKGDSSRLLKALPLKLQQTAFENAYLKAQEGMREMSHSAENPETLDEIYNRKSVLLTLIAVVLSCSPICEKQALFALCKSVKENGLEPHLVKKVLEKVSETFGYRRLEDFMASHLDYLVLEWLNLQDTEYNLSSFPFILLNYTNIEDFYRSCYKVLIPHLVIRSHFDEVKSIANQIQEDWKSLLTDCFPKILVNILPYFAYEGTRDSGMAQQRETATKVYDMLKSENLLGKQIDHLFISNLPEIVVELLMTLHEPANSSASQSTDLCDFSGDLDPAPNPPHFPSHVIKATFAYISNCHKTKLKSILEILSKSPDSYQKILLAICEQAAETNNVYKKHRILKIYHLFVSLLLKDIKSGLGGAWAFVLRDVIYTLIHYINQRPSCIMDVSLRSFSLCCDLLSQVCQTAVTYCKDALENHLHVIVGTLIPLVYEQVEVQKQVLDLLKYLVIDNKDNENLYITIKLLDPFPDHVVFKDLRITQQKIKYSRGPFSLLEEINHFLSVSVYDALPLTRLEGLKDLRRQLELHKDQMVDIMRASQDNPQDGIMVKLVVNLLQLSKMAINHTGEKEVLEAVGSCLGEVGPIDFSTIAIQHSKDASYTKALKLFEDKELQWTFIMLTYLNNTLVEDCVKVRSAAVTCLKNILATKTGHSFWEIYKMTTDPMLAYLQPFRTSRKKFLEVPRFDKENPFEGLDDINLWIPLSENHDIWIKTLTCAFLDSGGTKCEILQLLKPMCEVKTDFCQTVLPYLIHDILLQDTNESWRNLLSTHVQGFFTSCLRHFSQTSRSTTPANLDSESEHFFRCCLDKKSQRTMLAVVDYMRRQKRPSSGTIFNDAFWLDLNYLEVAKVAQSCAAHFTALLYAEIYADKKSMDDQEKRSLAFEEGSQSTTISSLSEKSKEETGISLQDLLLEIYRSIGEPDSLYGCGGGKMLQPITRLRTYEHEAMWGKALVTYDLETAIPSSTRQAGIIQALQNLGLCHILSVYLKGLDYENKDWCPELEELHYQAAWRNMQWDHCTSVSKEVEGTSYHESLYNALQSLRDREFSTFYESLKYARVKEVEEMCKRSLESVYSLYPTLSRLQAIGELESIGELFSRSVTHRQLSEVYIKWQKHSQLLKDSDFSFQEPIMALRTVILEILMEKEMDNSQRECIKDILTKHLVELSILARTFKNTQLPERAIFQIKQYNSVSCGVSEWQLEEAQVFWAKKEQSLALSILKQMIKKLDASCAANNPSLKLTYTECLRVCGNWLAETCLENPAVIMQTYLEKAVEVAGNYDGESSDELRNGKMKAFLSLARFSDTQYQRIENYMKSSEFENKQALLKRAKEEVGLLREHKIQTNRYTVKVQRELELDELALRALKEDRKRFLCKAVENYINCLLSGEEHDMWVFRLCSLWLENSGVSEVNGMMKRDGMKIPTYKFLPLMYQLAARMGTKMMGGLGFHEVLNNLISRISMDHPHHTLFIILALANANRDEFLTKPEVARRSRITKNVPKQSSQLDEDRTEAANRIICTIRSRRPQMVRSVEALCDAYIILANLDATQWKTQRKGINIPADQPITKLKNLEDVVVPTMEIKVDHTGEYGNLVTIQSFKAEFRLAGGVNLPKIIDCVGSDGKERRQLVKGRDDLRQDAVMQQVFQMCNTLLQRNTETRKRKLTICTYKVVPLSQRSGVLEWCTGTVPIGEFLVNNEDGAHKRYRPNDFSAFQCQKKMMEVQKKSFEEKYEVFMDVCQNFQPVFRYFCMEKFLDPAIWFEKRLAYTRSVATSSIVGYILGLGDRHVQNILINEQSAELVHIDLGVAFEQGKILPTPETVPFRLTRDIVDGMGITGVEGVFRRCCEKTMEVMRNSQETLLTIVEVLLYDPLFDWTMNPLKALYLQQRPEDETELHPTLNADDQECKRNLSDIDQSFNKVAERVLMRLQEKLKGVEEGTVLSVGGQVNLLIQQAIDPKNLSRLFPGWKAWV

| pIC50 (ATM) | pIC50 (ATM-phosphorylated KAP1; [3]) | pIC50 [1, 4] | Structure (SMILES) | D 17 TGI [2] | D 17 TV (MEAN ± SD) [2] | inhibitory effect on ATM KAP phosphorylation, in words (ATM-phosphorylated KAP1; cellular level, compared with AZD1390 as positive control) | inhibitory effect on LN18 cell proliferation, in words ([1]; combined with radiotherapy, compared with AZD1390 as positive control) | pIC50 (ATM-phosphorylated KAP1) | pIC50 [1] |
| --- | --- | --- | --- | --- | --- | --- | --- | --- | --- |
| 9.60 | 9.21 | 8.28 | C[C@H]1COc2c(-c3ccc(OCCCN4CCCCC4)nc3)ccc3ncc4c(c23)n1c(=O)n4C [Example A-177, (S)-2,10-dimethyl-7-(6-(3-(piperidin-1-yl)propoxy)pyridin-3-yl)-9,10-dihydro-8-oxa-2,4,10a-triazanaphtho[2,1,8-cde]azulen-1(2H)-one] | 77.9% | 338 ± 67***^ mm^3 |  |  |  |  |
| 9.64 | 9.66 | 8.86 | C[C@H]1COc2c(-c3ccc(OCCCN4CCC5(CC4)CC5)nc3)ccc3ncc4c(c23)n1c(=O)n4C [Example A-183, (S)-7-(6-(3-(6-azaspiro[2.5]octan-6-yl)propoxy)pyridin-3-yl)-2,10-dimethyl-9,10-dihydro-8-oxa-2,4,10a-triazanaphtho[2,1,8-cde]azulen-1(2H)-one] | 85.7% | 269 ± 89***^# mm^3 | higher than that of AZD1390 | higher than that of AZD1390 |  |  |
| 9.36 |  |  | C[C@H]1CNc2c(-c3ccc(OCCCN4CCCCC4)nc3)ccc3ncc4c(c23)n1c(=O)n4C [Example A-198, (S)-2,10-dimethyl-7-(6-(3-(piperidin-1-yl)propoxy)pyridin-3-yl)-2,8,9,10-tetrahydro-1H-2,4,8,10a-tetraazanaphtho[2,1,8-cde]azulen-1(2H)-one] | 79.3% | 326 ± 77***^# mm^3 |  |  | 9.19 | 8.23 |

| Structure (SMILES) | pIC50 (ATM) | pIC50 (ATM-phosphorylated KAP1; [3]) | pIC50 [1, 4] | D 17 TGI [2] | D 17 TV (MEAN ± SD) [2] | inhibitory effect on ATM KAP phosphorylation, in words (ATM-phosphorylated KAP1; cellular level, compared with AZD1390 as positive control) | inhibitory effect on LN18 cell proliferation, in words ([1]; combined with radiotherapy, compared with AZD1390 as positive control) | pIC50 (ATM-phosphorylated KAP1) | pIC50 [1] |
| --- | --- | --- | --- | --- | --- | --- | --- | --- | --- |
| CC[C@H]1CNc2c(-c3ccc(OCCCN4CCCCC4)nc3)ccc3ncc4c(c23)n1c(=O)n4C [Example A-203, (S)-10-ethyl-2-methyl-7-(6-(3-(piperidin-1-yl)propoxy)pyridin-3-yl)-2,8,9,10-tetrahydro-1H-2,4,8,10a-tetraazanaphtho[2,1,8-cde]azulen-1(2H)-one] | 9.27 |  |  | 71.4% | 396 ± 121*** mm^3 |  |  | 9.08 | 8.25 |
